How the values were obtained:
[1] = tested on: Sprague Dawley rats (formalin model of acute pain); assay: Formalin test after intrathecal application of S1P; type: in vivo, rat; conditions: for Mean flinches in 5 min interval: 20 μl of 10 μM S1P intrathecal 15 min prior to formalin, mean of six animals
Experimental: The analgesic effect of sphingosine-1-phosphate (S1P) was determined by intrathecal application to the spinal cord by:
Wild type Sprague Dawley rats were purchased from Charles River Wiga GmbH (Sulzfeld, Germany). The animals had free access to food and water prior to the experiments. They were maintained in climate- and light-controlled rooms (24+0.5° C.). Each animal was used at one occasion only. In all experiments the ethics guidelines for investigations in conscious animals were obeyed, and the procedures were approved by the local Ethics Committee.
Rats were anesthetized with ketamine (60 mg/kg i.p.) and midazolam (0.5 to 1 mg/kg i.p.). The skin was incised above the vertebral column from vertebrae Th13 up to L3. Muscle tissue around L2-3 was cleared away. The processus spinosus of L3 was removed and a laminectomy was done at L2. Polyethylene catheters (ID 0.28 mm, OD 0.61 mm) were then inserted into the peridural space so that the tip of the catheter reached Th9-10. The catheter was fixed with cyanacrylate glue and was externalized in the neck region and the skin was sutured.
Three days after surgery rats were placed into a “freely moving system” (CMA, Stockholm, Sweden) 20 μl of 10 μM S1P, purchased from Tocris (Ellisville, Mo.), were infused through the catheter.
Within 15 min after stopping the infusion the formalin test was performed. 50 μL of a 5% formaldehyde solution were injected subcutaneously (s. c.) into the dorsal surface of one hind paw. Flinches were counted in one-minute intervals up to 60 min starting right after formalin injection. Flinches of 5 min intervals were summarized as mean flinches per minute. To compare the nociceptive behavior between groups the sum of flinches during the one-hour observation period were submitted to the Students t-test.
S1P was dissolved in DMSO to a final concentration of 2.5 mM and then diluted 1:250 in PBS. 20 μl of 10 μM S1P or 20 μl 0.1 M phosphate buffered saline, pH 7.2 (PBS,) in DMSO were given to adult rats by intrathecal application 15 minutes prior to the formalin injection. Then, flinches were counted in 5 minutes intervals over a period of 60 minutes.

[2] = tested on: Sprague Dawley rats (formalin model of acute pain); assay: Formalin test after interperitoneal injection of compound 1; type: in vivo, rat; conditions: for Mean flinches in 5 min interval: 1 mg/kg interperitoneally in PEG 3 hours prior to formalin, n = 5 rats
Experimental: Animals: Male Sprague Dawley rats weighing 300-350 g were purchased from Charles River Wiga GmbH (Sulzfeld, Germany). The animals had free access to food and water prior to the experiments. They were maintained in climate- and light-controlled rooms (24+0.5° C.). Each animal was used at one occasion only. In all experiments the ethics guidelines for investigations in conscious animals were obeyed and the procedures were approved by the local Ethics Committee. Formalin test: The formalin assay was performed in a dedicated room with restriction on sound level and activity. 2-amino-2-[2-(4-octylphenyl)ethyl]-1,3-propanediol hydrochloride (compound 1) was dissolved in polyethylene-glycol (PEG) at a concentration of 1 mg/ml and injected interperitoneally (1 mg/kg) 3 hours prior to the formalin tests were performed with compound 1. 50 μl of a 5% formaldehyde solution was injected subcutaneously (s.c.) into the dorsal surface of one hind paw. Rats were placed into a plexiglas chamber surrounded by mirrors to allow an unobstructed view of the paws. Flinches were counted in one-minute intervals up to 60 min starting right after formalin injection. Flinches of 5 min intervals were summarized as mean flinches per minute +SEM. Statistical analysis was performed using the student's t-test (*p<0.04).

SMILES: CCCCCCCCCCCCC/C=C/[C@@H](O)[C@@H](N)COP(=O)(O)O [Compound S1P, sphingosine-1-phosphate]
- Number of nociceptive responses for phase 2A compared to PBS/DMSO-treated animals ([1]; phase 2A = 20 to 35 minutes after formalin injection, 20 μl of 10 μM S1P intrathecal): significant decrease
- Mean flinches in 5 min interval ([1]; time 5 min after formalin): 60.9
- Mean flinches in 5 min interval ([1]; time 10 min after formalin): 24.6
- Mean flinches in 5 min interval ([1]; time 15 min after formalin): 12.7
- Mean flinches in 5 min interval ([1]; time 20 min after formalin): 17.1
- Mean flinches in 5 min interval ([1]; time 25 min after formalin): 19.6
- Mean flinches in 5 min interval ([1]; time 30 min after formalin): 24.7
- Mean flinches in 5 min interval ([1]; time 35 min after formalin): 31.4
- Mean flinches in 5 min interval ([1]; time 40 min after formalin): 41.9
- Mean flinches in 5 min interval ([1]; time 45 min after formalin): 49.3
- Mean flinches in 5 min interval ([1]; time 50 min after formalin): 41.3
- Mean flinches in 5 min interval ([1]; time 55 min after formalin): 49.0
- Mean flinches in 5 min interval ([1]; time 60 min after formalin): 38.0

SMILES: CCCCCCCCc1ccc(CCC(N)(CO)CO)cc1.Cl [Compound 1, 2-amino-2-[2-(4-octylphenyl)ethyl]-1,3-propanediol hydrochloride]
- Number of nociceptive responses for phase 2A compared to the control animals ([2]; phase 2A = 20 to 35 minutes after formalin injection, 1 mg/kg interperitoneally, student's t-test): significant decrease
- Mean flinches in 5 min interval ([2]; time 5 min after formalin): 85.4
- Mean flinches in 5 min interval ([2]; time 10 min after formalin): 41.2
- Mean flinches in 5 min interval ([2]; time 15 min after formalin): 33.6
- Mean flinches in 5 min interval ([2]; time 20 min after formalin): 29.6
- Mean flinches in 5 min interval ([2]; time 25 min after formalin): 31.6
- Mean flinches in 5 min interval ([2]; time 30 min after formalin): 51.4
- Mean flinches in 5 min interval ([2]; time 35 min after formalin): 49.2
- Mean flinches in 5 min interval ([2]; time 40 min after formalin): 48.0
- Mean flinches in 5 min interval ([2]; time 45 min after formalin): 48.6
- Mean flinches in 5 min interval ([2]; time 50 min after formalin): 39.8
- Mean flinches in 5 min interval ([2]; time 55 min after formalin): 42.6
- Mean flinches in 5 min interval ([2]; time 60 min after formalin): 42.2

From patent US7524887B2, “2-amino-1,3-propanediol compounds for the treatment of acute pain” (Sanofi-Aventis Deutschland GmbH, priority 2003, dated 2009)
